Measurements reported in publication PMC10442672, “Synthesis of amantadine clubbed N-aryl amino thiazoles as potent urease, α-amylase & α-glucosidase inhibitors, kinetic and molecular docking studies” (RSC Advances, 2023).
In brackets after ≈: the same amount, converted by molar mass. Several values for one entry are separate records, joined by “and”; a condition that tells them apart may be missing. Equal entries are not always repeated. Each block holds one compound with its values, some of them ahead of it.

Columns and labels:
[1] = DPPH assay (antioxidant potential); conditions: DPPH 100 μM; 30 minutes at 37 °C; triplicate
Protocol: DPPH assay as reported earlier was used to determine the antioxidant potential of newly synthesised compound.[46] For experiment, […] (100 μM) solution was mixed with 5 μl of sample compounds and ascorbic acid (positive control) at concentration of 100, 50 and 25 μM in 96-well plate respectively. Plate was incubated in dark for 30 minutes at 37 °C and then absorbance was measured at 515 nm using Elx800 microtiter plate reader. The experiment was performed in triplicate and percentage scavenging was calculated as following:Percentage scavenging (%) = [1 − absorbance of sample/absorbance of control] × 100

Bacillus subtilis = experiment: Antibacterial disc diffusion assay; type: cell-based; conditions: for MIC / zone of inhibition at 100 µM: Bacillus subtilis
Protocol: (§1) Anti-bactericidal activity of the compounds was determined by using disc diffusion method. […] The assay was performed in triplicate and Kanamycin was used as positive control. […] According to Yildiz et al.[39] the antibacterial activity of a substitution connected to a biologically active molecule may be increased.
(§2) Disc diffusion assay was used to determine the antibacterial potential of newly synthesised compounds as reported earlier.[45] For experiment, 1% inoculum of Bacillus subtilis, Staphylococcus aureus, Escherichia coli and Pseudomonas aeruginosa was transferred to autoclaved nutrient agar media (23 g l^−1) respectively. Then media were poured in respective plates and allowed to solidify. Samples (100 μM) and Kanamycin drug (10 μM) was loaded on sterile paper disc (5 mm) and these discs were placed on Petriplates at appropriate distance. Plates were incubated for 24 hours at 37 °C and zone of inhibition were measured using Vernier calliper.

Staphylococcus aureus = experiment: Antibacterial disc diffusion assay; type: cell-based
Protocol: as §1, §2

Pseudomonas aeruginosa = experiment: Antibacterial disc diffusion assay; type: cell-based
Protocol: as §1, §2

Escherichia coli = experiment: Antibacterial disc diffusion assay; type: cell-based
Protocol: as §1, §2

α-amylase = type: biochemical; conditions: starch substrate; pH 6.8; 30 minutes at 50 °C; triplicate
Protocol: α-Amylase inhibition assay was performed to calculate the enzyme inhibition potential of newly synthesised compounds.[48] […] In blank 40 μl starch and 50 μl phosphate buffer was added. […] Then absorbance was measured at 540 nm using Elx800 microtiter plate reader.

[2] = test system: Bacillus subtilis, Staphylococcus aureus, Escherichia coli and Pseudomonas aeruginosa; experiment: Antibacterial disc diffusion assay, all four tested strains; type: cell-based
Protocol: as §1, §2

urease = urease (Canavalia ensiformis, UniProt P07374); conditions: read-out: Urease IC50; 100 mM urea; pH 8.2; 37 °C; triplicate
urease, sequence (P07374 whole entry, looked up, the tested form may be a part): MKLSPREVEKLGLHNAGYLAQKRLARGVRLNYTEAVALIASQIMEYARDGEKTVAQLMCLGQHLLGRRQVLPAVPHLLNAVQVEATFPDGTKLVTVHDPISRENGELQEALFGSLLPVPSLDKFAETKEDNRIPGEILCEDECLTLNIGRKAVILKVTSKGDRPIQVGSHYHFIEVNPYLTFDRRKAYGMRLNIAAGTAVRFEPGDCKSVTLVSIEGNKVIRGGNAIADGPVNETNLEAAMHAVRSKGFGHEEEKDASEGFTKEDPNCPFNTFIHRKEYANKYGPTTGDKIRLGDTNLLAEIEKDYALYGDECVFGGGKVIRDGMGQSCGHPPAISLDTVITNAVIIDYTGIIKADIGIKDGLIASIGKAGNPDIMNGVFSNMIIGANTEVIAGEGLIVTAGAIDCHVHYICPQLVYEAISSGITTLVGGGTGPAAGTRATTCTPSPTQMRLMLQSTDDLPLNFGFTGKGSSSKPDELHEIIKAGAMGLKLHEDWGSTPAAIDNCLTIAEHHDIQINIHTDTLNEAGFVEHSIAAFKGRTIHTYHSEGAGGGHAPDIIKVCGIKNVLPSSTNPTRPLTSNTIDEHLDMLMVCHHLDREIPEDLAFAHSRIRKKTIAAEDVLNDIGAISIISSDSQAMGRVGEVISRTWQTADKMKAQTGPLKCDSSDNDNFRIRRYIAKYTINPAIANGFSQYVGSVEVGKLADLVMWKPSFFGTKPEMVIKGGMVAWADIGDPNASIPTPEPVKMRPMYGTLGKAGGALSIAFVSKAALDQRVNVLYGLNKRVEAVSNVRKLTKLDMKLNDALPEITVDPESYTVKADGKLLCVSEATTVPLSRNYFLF

[3] = disc diffusion, samples 100 μM, Kanamycin 10 μM on disc, 24 hours at 37 °C

IC50 [1]: 0.892 µM and 0.89 µM
Structure (SMILES): O=C1O[C@H]([C@@H](O)CO)C(O)=C1O [Ascorbic acid, reference compound]

Structure (SMILES): Cc1nc(N)sc1C(=O)NC12CC3CC(CC(C3)C1)C2 [Compound 6a, N-(Adamantan-1-yl)-2-amino-4-methylthiazole-5-carboxamide]
melting point: 256 to 257 °C | MIC (Bacillus subtilis): 50 µM (≈ 14.6 µg/mL) | zone of inhibition at 100 µM (Bacillus subtilis; [3]): 13 mm | MIC (Staphylococcus aureus; Staphylococcus aureus): 75 µM (≈ 21.9 µg/mL) | zone of inhibition at 100 µM (Staphylococcus aureus; Staphylococcus aureus, disc diffusion, samples 100 μM, Kanamycin 10 μM on disc, 24 hours at 37 °C): 8 mm | MIC (Pseudomonas aeruginosa; Pseudomonas aeruginosa): 50 µM (≈ 14.6 µg/mL) | zone of inhibition at 100 µM (Pseudomonas aeruginosa; Pseudomonas aeruginosa, disc diffusion, samples 100 μM, Kanamycin 10 μM on disc, 24 hours at 37 °C): 10 mm | MIC (Escherichia coli; Escherichia coli): 50 µM (≈ 14.6 µg/mL) | zone of inhibition at 100 µM (Escherichia coli; Escherichia coli, disc diffusion, samples 100 μM, Kanamycin 10 μM on disc, 24 hours at 37 °C): 11 mm | IC50 (α-amylase): 118.3 ± 0.71 µM | antibacterial activity against tested bacterial strains [2]: significant antibacterial activity | IC50 [1]: 157 ± 10.3 µM

Structure (SMILES): Cc1nc(Nc2ccc([N+](=O)[O-])cc2)sc1C(=O)NC12CC3CC(CC(C3)C1)C2 [Compound 6b, N-(Adamantan-1-yl)-4-methyl-2-((4-nitrophenyl)amino)thiazole-5-carboxamide]
melting point: 300 to 303 °C | IC50 (α-amylase): > 100 µM | antibacterial activity against tested bacterial strains [2]: no antibacterial activity | IC50 [1]: 108 ± 1.93 µM

Structure (SMILES): Cc1nc(Nc2ccc(Br)cc2)sc1C(=O)NC12CC3CC(CC(C3)C1)C2 [Compound 6c, N-(Adamantan-1-yl)-4-methyl-2-((4-bromophenyl)amino)thiazole-5-carboxamide]
melting point: 277 to 280 °C | MIC (Bacillus subtilis): 75 µM (≈ 33.5 µg/mL) | zone of inhibition at 100 µM (Bacillus subtilis; [3]): 7 mm | IC50 (α-amylase): > 100 µM | antibacterial activity against tested bacterial strains [2]: activity against one bacterial strain out of four | IC50 [1]: 126 ± 2.66 µM

Structure (SMILES): COc1ccc(Nc2nc(C)c(C(=O)NC34CC5CC(CC(C5)C3)C4)s2)cc1 [Compound 6d, N-(Adamantan-1-yl)-4-methyl-2-((4-methoxyphenyl)amino)thiazole-5-carboxamide]
melting point: 226 to 229 °C | IC50 (α-amylase): 97.4 ± 1.53 µM | antibacterial activity against tested bacterial strains [2]: no antibacterial activity | IC50 [1]: 19.2 ± 0.37 µM

Structure (SMILES): COc1ccccc1Nc1nc(C)c(C(=O)NC23CC4CC(CC(C4)C2)C3)s1 [Compound 6e, N-(Adamantan-1-yl)-4-methyl-2-((2-methoxyphenyl)amino)thiazole-5-carboxamide]
melting point: 210 to 212 °C | IC50 (α-amylase): > 100 µM | α-Amylase IC50 (α-amylase): inactive | antibacterial activity against tested bacterial strains [2]: no antibacterial activity | IC50 [1]: 110.3 ± 0.76 µM

Structure (SMILES): Cc1nc(Nc2cccc(Cl)c2)sc1C(=O)NC12CC3CC(CC(C3)C1)C2 [Compound 6f, N-(Adamantan-1-yl)-4-methyl-2-((3-chlorophenyl)amino)thiazole-5-carboxamide]
melting point: 253 to 254 °C | IC50 (α-amylase): > 100 µM | antibacterial activity against tested bacterial strains [2]: no antibacterial activity | IC50 [1]: 136.7 ± 1.33 µM

Structure (SMILES): Cc1nc(Nc2ccccc2Cl)sc1C(=O)NC12CC3CC(CC(C3)C1)C2 [Compound 6g, N-(Adamantan-1-yl)-4-methyl-2-((2-chlorophenyl)amino)thiazole-5-carboxamide]
melting point: 202 to 203 °C | MIC (Bacillus subtilis): 75 µM (≈ 30.1 µg/mL) | zone of inhibition at 100 µM (Bacillus subtilis; [3]): 7 mm | IC50 (α-amylase): > 100 µM | antibacterial activity against tested bacterial strains [2]: activity against one bacterial strain out of four | IC50 [1]: 122 ± 6.54 µM

Structure (SMILES): Cc1nc(Nc2ccc(NS(C)(=O)=O)c(Oc3ccccc3)c2)sc1C(=O)NC12CC3CC(CC(C3)C1)C2 [Compound 6h, N-Adamantyl-4-methyl-2-((4-(methylsulfonamido)-3-phenoxyphenyl)amino) thiazole-5-carboxamide]
melting point: 156 to 160 °C | IC50 (α-amylase): > 100 µM | IC50 [1]: 64.1 ± 0.71 µM

Structure (SMILES): Cc1nc(Nc2cccc(F)c2)sc1C(=O)NC12CC3CC(CC(C3)C1)C2 [Compound 6i, N-Adamantyl-2-((3-fluorophenyl)amino)-4-methylthiazole-5-carboxamide]
melting point: 220 to 225 °C | IC50 (α-amylase): > 100 µM | IC50 [1]: 131 ± 1.11 µM

Structure (SMILES): Cc1nc(NC23CC4CC(CC(C4)C2)C3)sc1C(=O)NC12CC3CC(CC(C3)C1)C2 [Compound 6j, N-Adamantanyl-2-(((3s,5s,7s)-adamantan-1-yl)amino)-4-methylthiazole-5-carboxamide]
melting point: 250 to 253 °C | IC50 (α-amylase): > 100 µM | IC50 [1]: 137.9 ± 0.9 µM

MIC Bacillus subtilis (Bacillus subtilis): MIC = 25 μM | MIC Staphylococcus aureus (Staphylococcus aureus): MIC = 20 μM | MIC Pseudomonas aeruginosa (Pseudomonas aeruginosa): MIC = 20 μM | MIC Escherichia coli (Escherichia coli): MIC = 25 μM
Structure (SMILES): NC[C@H]1O[C@H](O[C@H]2[C@H](O)[C@@H](O[C@H]3O[C@H](CO)[C@@H](O)[C@H](N)[C@H]3O)[C@H](N)C[C@@H]2N)[C@H](O)[C@@H](O)[C@@H]1O [Kanamycin, reference compound]
Antibacterial zone of inhibition Bacillus subtilis (Bacillus subtilis; [3]): 21 mm | Antibacterial zone of inhibition Staphylococcus aureus (Staphylococcus aureus; [3]): 24 mm | Antibacterial zone of inhibition Pseudomonas aeruginosa (Pseudomonas aeruginosa; [3]): 22 mm | Antibacterial zone of inhibition Escherichia coli (Escherichia coli; [3]): 20 mm

Structure (SMILES): NC(N)=S [Thiourea]
IC50 (urease): 1.33 µM
